Laboratory results from patent US8906929B2, “Inhibitors of human immunodeficiency virus replication” (priority 2012, dated 2014).

System: recombinant NL-Rluc virus
Assay: Inhibition of HIV replication (NL-RLuc virus in MT-2 cells, luciferase readout)
Format: cell-based
Conditions: Human immunodeficiency virus 1, MT2, 120 h, 5 days of incubation, 10% FBS

Cc1nc2cc3nn2c(c1[C@H](OC(C)(C)C)C(=O)O)N1CCC(C)(CC1)OCCC[C@H](C)Oc1ccccc1-c1cccc-3c1 [Example 24, (2S)-2-(tert-Butoxy)-2-[(22S)-4,22,27-trimethyl-21,26-dioxa-1,5,7,8-tetraazahexacyclo[25.2.2.1^6,^9.1^10,^14.0^2,^7.0^15,^20]tritriaconta-2,4,6(33),8,10(32),11,13,15(20),16,18-decaen-3-yl]acetic acid]
EC50: 8 nM

Cc1nc2cc3nn2c(c1[C@H](OC(C)(C)C)C(=O)O)N1CCC(C)(CC1)OCCC[C@@H](C)Oc1ccccc1-c1cccc-3c1 [Example 25, (2S)-2-(tert-Butoxy)-2-[(22R)-4,22,27-trimethyl-21,26-dioxa-1,5,7,8-tetraazahexacyclo[25.2.2.1^6,^9.1^10,^14.0^2,^7.0^15,^20]tritriaconta-2,4,6(33),8,10(32),11,13,15(20),16,18-decaen-3-yl]acetic acid]
EC50: 38 nM

Cc1nc2cc3nn2c(c1[C@H](OC(C)(C)C)C(=O)O)N1CCC(C)(CC1)OCC=CCCOc1ccccc1-c1cccc-3c1 [Example 26, (2S)-2-(tert-Butoxy)-2-[4,28-dimethyl-21,27-dioxa-1,5,7,8-tetraazahexacyclo[26.2.2.1^6,^9.1^10,^14.0^2,^7.0^15,^20]tetratriaconta-2,4,6(34),8,10(33),11,13,15(20),16,18,24-undecaen-3-yl]acetic acid]
EC50: 41 nM

Cc1nc2cc3nn2c(c1[C@H](OC(C)(C)C)C(=O)O)N1CCC(C)(CC1)OCCCCCOc1ccccc1-c1cccc-3c1 [Example 27, (2S)-2-(tert-Butoxy)-2-{4,28-dimethyl-21,27-dioxa-1,5,7,8-tetraazahexacyclo[26.2.2.1^6,^9.1^10,^14.0^2,^7.0^15,^20]tetratriaconta-2,4,6(34),8,10(33),11,13,15(20),16,18-decaen-3-yl}acetic acid]
EC50: 10 nM

Cc1nc2cc3nn2c(c1[C@H](OC(C)(C)C)C(=O)O)N1CCC(C)(CC1)OCCCC[C@@H](C)Oc1ccccc1-c1cccc-3c1 [Example 28, (2S)-2-(tert-Butoxy)-2-[(22R)-4,22,28-trimethyl-21,27-dioxa-1,5,7,8-tetraazahexacyclo[26.2.2.1^6,^9.1^10,^14.0^2,^7.0^15,^20]tetratriaconta-2,4,6(34),8,10(33), 11, 13, 15 (20),16,18-decaen-3-yl]acetic acid]
EC50: 40 nM

Cc1nc2cc3nn2c(c1[C@H](OC(C)(C)C)C(=O)O)N1CCC(C)(CC1)OCCCC[C@H](C)Oc1ccccc1-c1cccc-3c1 [Example 29, (2S)-2-(tert-Butoxy)-2-[(22S)-4,22,28-trimethyl-21,27-dioxa-1,5,7,8-tetraazahexacyclo[26.2.2.1^6,^9.1^10,^14.0^2,^7.0^15,^20]tetratriaconta-2,4,6(34),8,10(33), 11, 13, 15 (20),16,18-decaen-3-yl]acetic acid]
EC50: 18 nM

Cc1nc2cc3nn2c(c1[C@H](OC(C)(C)C)C(=O)O)N1CCC(C)(CC1)OCCCCCCc1ccccc1-c1cccc-3c1 [Example 30, (2S)-2-(tert-Butoxy)-2-{4,28-dimethyl-27-oxa-1,5,7,8-tetraazahexacyclo[26.2.2.1^6,^9.1^10,^14.0^2,^7.0^15,^20]tetratriaconta-2,4,6(34),8,10(33), 11, 13, 15(20),16,18-decaen-3-yl}acetic acid]
EC50: 27 nM

Cc1nc2cc3nn2c(c1[C@H](OC(C)(C)C)C(=O)O)N1CCC(C)(CC1)OCC=CCOc1ccc(Cl)cc1-c1cccc-3c1 [Example 31, (2S)-2-(tert-Butoxy)-2-[17-chloro-4,2,7-dimethyl-21,26-dioxa-1,5,7,8-tetraazahexacyclo[25.2.2.1^6,^9.1^10,^14.0^2,^7.0^15,^20]tritriaconta-2,4,6(33),8,10(32),11,13,15(20),16,18,23-undecaen-3-yl]acetic acid]
EC50: 6 nM

Cc1nc2cc3nn2c(c1[C@H](OC(C)(C)C)C(=O)O)N1CCC(C)(CC1)OCCCCOc1ccc(Cl)cc1-c1cccc-3c1 [Example 32, (2S)-2-(tert-Butoxy)-2-{17-chloro-4,27-dimethyl-21,26-dioxa-1,5,7,8-tetraazahexacyclo[25.2.2.1^6,^9.1^10,^14.0^2,^7.0^15,^20]tritriaconta-2,4,6(33),8,10(32),11,13,15(20),16,18-decaen-3-yl}acetic acid]
EC50: 9 nM

Cc1ccc2c(c1)-c1cccc(c1)-c1cc3nc(C)c([C@H](OC(C)(C)C)C(=O)O)c(n3n1)N1CCC(C)(CC1)OCC=CCO2 [Example 33, (2S)-2-(tert-Butoxy)-2-[4,17,27-trimethyl-21,26-dioxa-1,5,7,8-tetraazahexacyclo[25.2.2.1^6,^9.1^10,^14.0^2,^7.0^15,^20]tritriaconta-2,4,6(33),8,10(32),11,13,15(20),16,18,23-undecaen-3-yl]acetic acid]
EC50: 8 nM

Cc1ccc2c(c1)-c1cccc(c1)-c1cc3nc(C)c([C@H](OC(C)(C)C)C(=O)O)c(n3n1)N1CCC(C)(CC1)OC=CCCO2 [Example 34, (2S)-2-(tert-Butoxy)-2-[4,17,27-trimethyl-21,26-dioxa-1,5,7,8-tetraazahexacyclo[25.2.2.1^6,^9.1^10,^14.0^2,^7.0^15,^20]tritriaconta-2,4,6(33),8,10(32),11,13,15(20),16,18,24-undecaen-3-yl]acetic acid]
EC50: 14 nM

Cc1ccc2c(c1)-c1cccc(c1)-c1cc3nc(C)c([C@H](OC(C)(C)C)C(=O)O)c(n3n1)N1CCC(C)(CC1)OCCCCO2 [Example 35, (2S)-2-(tert-Butoxy)-2-{4,17,27-trimethyl-21,26-dioxa-1,5,7,8-tetraazahexacyclo[25.2.2.1^6,^9.1^10,^14.0^2,^7.0^15,^20]tritriaconta-2,4,6(33),8,10(32),11,13,15(20),16,18-decaen-3-yl}acetic acid]
EC50: 10 nM

Cc1nc2cc3nn2c(c1[C@H](OC(C)(C)C)C(=O)O)N1CCC(C)(CC1)OC/C=C/CCc1ccncc1-c1cccc-3c1 [Example 36, (2S)-2-(tert-Butoxy)-2-[(23E)-4,27-dimethyl-26-oxa-1,5,7,8,17-pentaazahexacyclo[25.2.2.1^6,^9.1^10,^14.0^2,^7.0^15,^20]tritriaconta-2,4,6(33),8,10(32),11,13,15(20),16,18,23-undecaen-3-yl]acetic acid]
EC50: 34 nM

Cc1nc2cc3nn2c(c1[C@H](OC(C)(C)C)C(=O)O)N1CCC(C)(CC1)OC/C=C\CCc1ccncc1-c1cccc-3c1 [Example 37, (2S)-2-(tert-Butoxy)-2-[(23Z)-4,27-dimethyl-26-oxa-1,5,7,8,17-pentaazahexacyclo[25.2.2.1^6,^9.1^10,^14.0^2,^7.0^15,^20]tritriaconta-2,4,6(33),8,10(32), 11, 13, 15(20),16,18,23-undecaen-3-yl]acetic acid]
EC50: 2 nM

Cc1nc2cc3nn2c(c1[C@H](OC(C)(C)C)C(=O)O)N1CCC(C)(CC1)OCCCCCc1ccncc1-c1cccc-3c1 [Example 38, (2S)-2-(tert-Butoxy)-2-{4,27-dimethyl-26-oxa-1,5,7,8,17-pentaazahexacyclo[25.2.2.1^6,^9.1^10,^14.0^2,^7.0^15,^20]tritriaconta-2,4,6(33),8,10(32), 11, 13, 15 (20),16,18-decaen-3-yl}acetic acid]
EC50: 2 nM

Cc1nc2cc3nn2c(c1[C@H](OC(C)(C)C)C(=O)O)N1CCC(C)(/C=C/C=C\CCc2ccccc2-c2cccc-3c2)CC1 [Example 39, (2S)-2-(tert-Butoxy)-2-[(23Z,25E)-4,27-dimethyl-1,5,7,8-tetraazahexacyclo[25.2.2.1^6,^9.1^10,^14.0^2,^7.0^15,^20]tritriaconta-2,4,6(33),8,10(32),11,13, 15(20), 16,18,23,25-dodecaen-3-yl]acetic acid]
EC50: 118 nM

Cc1nc2cc3nn2c(c1[C@H](OC(C)(C)C)C(=O)O)N1CCC(C)(/C=C/C=C/CCc2ccccc2-c2cccc-3c2)CC1 [Example 40, (2S)-2-(tert-Butoxy)-2-[(23E,25E)-4,27-dimethyl-1,5,7,8-tetraazahexacyclo[25.2.2.1^6,^9.1^10,^14.0^2,^7.0^15,^20]tritriaconta-2,4,6(33),8,10(32),11,13, 15(20), 16,18,23,25-dodecaen-3-yl]acetic acid]
EC50: 34 nM

Cc1nc2cc3nn2c(c1[C@H](OC(C)(C)C)C(=O)O)N1CCC(C)(CCCCCCc2ccccc2-c2cccc-3c2)CC1 [Example 41, (2S)-2-(tert-Butoxy)-2-{4,27-dimethyl-1,5,7,8-tetraazahexacyclo[25.2.2.1^6,^9.1^10,^14.0^2,^7.0^15,^20]tritriaconta-2,4,6(33),8,10(32), 11,13,15(20),16,18-decaen-3-yl}acetic acid]
EC50: 180 nM

Cc1nc2cc3nn2c(c1[C@H](OC(C)(C)C)C(=O)O)N1CCC(C)(/C=C/C=C\COc2ccc(Cl)cc2-c2cccc-3c2)CC1 [Example 42, (2S)-2-(tert-Butoxy)-2-[(23Z,25E)-17-chloro-4,27-dimethyl-21-oxa-1,5,7,8-tetraazahexacyclo[25.2.2.1^6,^9.1^10,^14.0^2,^7.0^15,^20]tritriaconta-2,4,6(33),8,10(32), 11, 13, 15(20),16,18,23,25-dodecaen-3-yl]acetic acid]
EC50: 35 nM

Cc1nc2cc3nn2c(c1[C@H](OC(C)(C)C)C(=O)O)N1CCC(C)(/C=C/C=C/COc2ccc(Cl)cc2-c2cccc-3c2)CC1 [Example 43, (2S)-2-(tert-Butoxy)-2-[(23E,25E)-17-chloro-4,27-dimethyl-21-oxa-1,5,7,8-tetraazahexacyclo[25.2.2.1^6,^9.1^10,^14.0^2,^7.0^15,^20]tritriaconta-2,4,6(33),8,10(32), 11, 13, 15(20),16,18,23,25-dodecaen-3-yl]acetic acid]
EC50: 134 nM

Cc1nc2cc3nn2c(c1[C@H](OC(C)(C)C)C(=O)O)N1CCC(C)(CCCCCOc2ccc(Cl)cc2-c2cccc-3c2)CC1 [Example 44, (2S)-2-(tert-Butoxy)-2-{17-chloro-4,27-dimethyl-21-oxa-1,5,7,8-tetraazahexacyclo[25.2.2.1^6,^9.1^10,^14.0^2,^7.0^15,^20]tritriaconta-2,4, 6(33), 8, 10(32), 11, 13, 15 (20),16,18-decaen-3-yl}acetic acid]
EC50: 41 nM
